The NIST ThermoML archive (doi:10.1016/j.tca.2015.04.027)

Tests used:
[1] = xn = mol fraction of the nth substance listed; settings: 87 kPa, Liquid, Vibrating tube method
[2] = 87 kPa, Liquid, Vibrating tube method

OC(CCl)CCl [1,3-dichloro-2-propanol] + C=CCO
mass density [kg/m3], [1]
Settings	298.15 K	303.15 K	308.15 K	313.15 K	318.15 K
x1 = 0.0927	914.27	909.73	905.11	900.45	895.75
x1 = 0.1927	978.2	973.46	968.64	963.78	958.88
x1 = 0.2704	1024.81	1019.93	1014.97	1009.97	1004.93
x1 = 0.3548	1072.33	1067.35	1062.2	1057.06	1051.87
x1 = 0.4555	1125.39	1120.22	1114.94	1109.64	1104.29
x1 = 0.4973	1146.3	1141.05	1135.75	1130.35	1124.95
x1 = 0.6062	1198.1	1192.65	1187.2	1181.65	1176.1
x1 = 0.7166	1246.88	1241.35	1235.7	1230.01	1224.28
x1 = 0.8004	1281.46	1275.78	1270	1264.19	1258.35
x1 = 0.8893	1316.06	1310.26	1304.41	1298.46	1292.49
x1 = 0.9452	1336.81	1330.96	1325.07	1319.07	1313.05
x1 = 1	1356.46	1350.55	1344.61	1338.56	1332.47

C=CCO [2-propenol] + CCOS(=O)(=O)[O-].CCn1cc[n+](C)c1
mass density [kg/m3], [1]
Settings	298.15 K	303.15 K	308.15 K	313.15 K	318.15 K
x1 = 0.0988	1223.65	1220.28	1216.87	1213.47	1210.09
x1 = 0.1811	1211.14	1207.72	1204.27	1200.85	1197.44
x1 = 0.2833	1193.07	1189.54	1186.02	1182.52	1179.15
x1 = 0.4107	1165.72	1162.19	1158.64	1155.11	1151.59
x1 = 0.4939	1143.57	1140.1	1136.5	1133	1129.55
x1 = 0.5909	1112.3	1109.47	1105.88	1102.21	1098.55
x1 = 0.7086	1064.08	1061.4	1058	1054.02	1049.98
x1 = 0.8066	1012	1009.5	1005.8	1001.87	997.66
x1 = 0.9057	942.5	939.58	935.46	931.33	927.19
x1 = 0.9835	869.29	865.2	860.9	856.62	852.28
x1 = 1	850.4	846.02	841.59	837.13	832.63

OC(CCl)CCl [1,3-dichloro-2-propanol] + CCOS(=O)(=O)[O-].CCn1cc[n+](C)c1
mass density [kg/m3], [1]
Settings	298.15 K	303.15 K	308.15 K	313.15 K	318.15 K
x1 = 0.0638	1239	1235.7	1232.4	1229	1225.55
x1 = 0.1199	1241.65	1238.3	1234.9	1231.6	1228.1
x1 = 0.2073	1246.7	1243.39	1239.87	1236.36	1232.86
x1 = 0.2973	1252.5	1249.05	1245.5	1241.9	1238.2
x1 = 0.3964	1259.8	1256.2	1252.5	1248.7	1245.1
x1 = 0.505	1269.3	1265.55	1261.5	1257.6	1253.9
x1 = 0.6616	1286.79	1282.36	1278.15	1274	1270
x1 = 0.7527	1300	1295.49	1291.17	1286.8	1282.3
x1 = 0.8236	1313	1308.44	1304	1299.5	1294.6
x1 = 0.9012	1329.59	1324.72	1319.69	1314.64	1309.58
x1 = 0.9645	1346	1340.45	1335.3	1329.4	1323.7
x1 = 1	1356.46	1350.55	1344.61	1338.56	1332.47

OC(CCl)CCl [1,3-dichloro-2-propanol]
[2]
Settings	mass density [kg/m3]
298.15 K	1356.46
303.15 K	1350.55
308.15 K	1344.61
313.15 K	1338.56
318.15 K	1332.47

CCOS(=O)(=O)[O-].CCn1cc[n+](C)c1 [1-ethyl-3-methylimidazolium ethyl sulfate] + C=CCO
[1], x2 = 0
Settings	mass density [kg/m3]
298.15 K	1236.42
303.15 K	1233.09
308.15 K	1229.72
313.15 K	1226.36
318.15 K	1223

C=CCO [2-propenol] + OC(CCl)CCl
[1], x2 = 0
Settings	mass density [kg/m3]
298.15 K	850.4
303.15 K	846.02
308.15 K	841.59
313.15 K	837.13
318.15 K	832.63

CCOS(=O)(=O)[O-].CCn1cc[n+](C)c1 [1-ethyl-3-methylimidazolium ethyl sulfate]
[2]
Settings	mass density [kg/m3]
298.15 K	1236.42
303.15 K	1233.09
308.15 K	1229.72
313.15 K	1226.36
318.15 K	1223

C=CCO [2-propenol]
[2]
Settings	mass density [kg/m3]
298.15 K	850.4
303.15 K	846.02
308.15 K	841.59
313.15 K	837.13
318.15 K	832.63

CCOS(=O)(=O)[O-].CCn1cc[n+](C)c1 [1-ethyl-3-methylimidazolium ethyl sulfate] + OC(CCl)CCl
[1], x2 = 0
Settings	mass density [kg/m3]
298.15 K	1236.42
303.15 K	1233.09
308.15 K	1229.72
313.15 K	1226.36
318.15 K	1223
